Tests used:
P2X7R = biological target: T1, P2X7R (Mus musculus, UniProt Q9Z1M0); assay: Entry of ethidium bromide into HT-22 cells; type: cell-based; details: HT-22 cells, 60 minutes, 10^−4M ethidium bromide; 1 μM to 1 mM tested
T1 construct: endogenous in cells; host or cells: HT-22 (immortalised mouse hippocampal cell line)
T1 sequence (Q9Z1M0 1-595): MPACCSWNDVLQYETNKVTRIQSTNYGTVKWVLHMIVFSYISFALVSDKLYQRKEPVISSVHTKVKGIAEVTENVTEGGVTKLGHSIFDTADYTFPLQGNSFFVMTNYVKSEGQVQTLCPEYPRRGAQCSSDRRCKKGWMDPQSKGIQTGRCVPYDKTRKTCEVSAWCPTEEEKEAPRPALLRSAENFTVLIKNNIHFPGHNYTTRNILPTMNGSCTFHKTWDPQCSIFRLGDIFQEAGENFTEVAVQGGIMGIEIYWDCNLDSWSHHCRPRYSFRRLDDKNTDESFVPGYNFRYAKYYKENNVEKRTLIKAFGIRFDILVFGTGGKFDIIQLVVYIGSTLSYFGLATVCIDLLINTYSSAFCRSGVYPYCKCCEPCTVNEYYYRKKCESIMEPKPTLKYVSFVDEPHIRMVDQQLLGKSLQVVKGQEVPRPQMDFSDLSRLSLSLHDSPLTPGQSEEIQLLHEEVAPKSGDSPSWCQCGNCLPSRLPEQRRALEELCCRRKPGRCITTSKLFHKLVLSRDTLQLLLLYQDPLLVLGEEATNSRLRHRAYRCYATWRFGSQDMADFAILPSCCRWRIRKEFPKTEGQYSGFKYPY
From the text: Yet another method of measuring P2X7R activity involves the entry of ethidium bromide into P2X7R expressing cells. Activation of P2X7R by an agonist allows the entry of ethidium bromide which binds nuclear DNA and emits a fluorescence signal. Alternatively, the propidium dye YOPRO-1 can be substituted for ethidium bromide. An increase in fluorescence can be used as a measure of P2X7 receptor activation. Therefore, the assay can be used to test and quantify the effect of an agent or compound with agonist properties on P2X7R. In the present example, 10^3 HT-22 cells were seeded per well in a 96-well flat bottom microtitre plates and incubated at 37° C./5% CO2 in DMEM medium containing 10% FCS until the cells attached to the culture surface. […] The number of fluorescent cells which have integrated the ethidium bromide to the DNA can then be counted using a fluorescent microscope (Zeiss, Germany). […] Alternatively, ethidium bromide fluorescence can be measured using a Perkin-Elmer fluorescent plate reader (excitation 520 nm, emission 595 nm, slit widths: Ex 15 nm, Em 20 nm). From the readings obtained, a pIC50 figure can be calculated for each candidate agent or compound. […] The specificity of an agonist for P2X7R can be evaluated by pre-incubation of the cells for 60 minutes with 100 μM o-ATP before adding the agonist and ethidium bromide dye.

DBA/201a mouse strain = assay: Porsolt's forced swim test after intrahippocampal BzATP; type: in vivo; details: 50 μM BzATP, 24 hours after injection
From the text: In the present example, the P2X7R agonist was directly injected into the hippocampus of mice. However, a P2X7R agonist agent or compound could also be delivered orally, subcutaneously, intravenously, intra-arterial, intranodal, intramedullary, intrathecal, intraventricular, intranasally, intrabronchial, transdermally, intrarectally, intraperitoneally, intramuscularly, intrapulmonary, vaginally, rectally, or intraocularly.
Four months old male mice were bilaterally implanted with guide cannulae (23 gauge, length 8 mm) by means of a stereotactic instrument (David Kopf Instruments). The coordinates, in relation to bregma, were −2.0 mm posterior, ±1.0 mm lateral, and −1.0 mm ventral. After surgery, the mice were allowed to recover for 10 to 12 days. […] Injections were performed using a 9 mm-30 gauge needle inserted into the guide cannulae and connected via tubing to a 10 μl Hamilton syringe.
The forced swim test is a standard test that measures primary stress-induced reductions in avoidance or escape, termed behavioural despair. The test is used to determine the effectiveness of antidepressants, test new pharmaceutical compounds and validate animal models of depression (Porsolt et al., Arch. Int. Pharmacodym. 229 (1977), 327-336; Porsolt, Rev. Neurosci. 11 (2000), 53-58; Rénéric et al., Behav. Brain Res. 136 (2002), 521-532; Page et al., Psychopharmacology 165 (2003), 194-201; Kelliher et al., Psychoneuroendocrinology 28 (2003), 332-347). The test consists of placing a mouse for a period of 5 minutes into a glass cylinder containing water. Under such circumstances, the mouse cannot touch the bottom of the cylinder and is thus forced to swim. Time, latency and frequency of struggling versus floating are scored as behavioural parameters. […] Increased struggling (i.e. active attempts to escape) indicates active coping behaviour that can be interpreted as an improvement of depression-like symptoms. For example, treatment with serotonergic antidepressants reduce the total time spent floating (Borsini, Neurosci. Biobehav. Rev. 19 (1995), 377-395; Redrobe and Bourin, Psychopharmacology 138 (1998), 198-206, and in parallel increases the time of active behaviour (i.e. swimming or struggling; Lucki et al., Psychopharmacology 155 (2001), 315-322).

[1] = 1 μl each side, not supported statistically
[2] = 1 μl each side, statistically significant

2′-3′-O-(4-Benzoylbenzoyl)adenosine 5′-triphosphate [BzATP]
concentration that increased the number of fluorescent nuclei (P2X7R): above 100 μM
time of struggling (DBA/201a mouse strain; 1 μl each side of hippocampus, statistically significant): increase
frequency of struggling (DBA/201a mouse strain; [1]): increase
latency of struggling (DBA/201a mouse strain; [1]): decrease
time of floating (DBA/201a mouse strain; [1]): decrease
frequency of floating (DBA/201a mouse strain; [2]): decrease
latency of floating (DBA/201a mouse strain; [2]): increase

From patent US20060110385A1, “Means and methods for diagnosing and treating affective disorders” (Affectis Pharmaceuticals AG, priority 2003, published 2006)
